Results taken from article PMC8315004, “Discovery of Small-Molecule Inhibitors of SARS-CoV-2 Proteins Using a Computational and Experimental Pipeline” (Frontiers in Molecular Biosciences, 2021).
Structures can show the parent of a compound that is named as a salt.

Assays:
SARS-CoV-2 M^pro [1] = molecular target: T1, SARS-CoV-2 M^pro (Severe acute respiratory syndrome coronavirus 2, UniProt P0DTD1); test: biochemical; design: inhibition: dose or concentration left out as unconfirmed; conditions: for inhibition / Normalized Percent FRET inhibition: initial screen, Table S4; for inhibition: read-out: Normalized Percent FRET inhibition; for Normalized Percent FRET inhibition: 100 μM of drug
[2] = molecular target: ACE2-RBD binding (SARS-CoV-2 RBD / human ACE2-Fc) (Severe acute respiratory syndrome coronavirus 2, UniProt P0DTC2); test: biochemical; conditions: for RMAX of ACE2-RBD binding: RBD pre-treated with 50 μM compound, DMSO only 0.3044; for ACE2-RBD binding versus inhibitor concentration (in words): RBD pre-treated with increasing concentrations; for inhibition at 50 µM: pre-treatment with 50 μM compound, from Rmax with vs without compound
SARS-CoV-2 M^pro [3] = molecular target: T1, SARS-CoV-2 M^pro; test: Mpro substrate cleavage by gel electrophoresis (SDS-PAGE) and densitometry; type: biochemical; conditions: normalized gel densitometry data (red values of Figure 2D); read-out: IC50 against Mpro, gel electrophoresis and densitometry

CC(C)(C)NC(=O)[C@@H]1C[C@@H]2CCCC[C@@H]2CN1C[C@@H](O)[C@H](Cc1ccccc1)NC(=O)[C@H](CC(N)=O)NC(=O)c1ccc2ccccc2n1 [Saquinavir]
inhibition (SARS-CoV-2 M^pro [1]): -1.34%

C#Cc1cccc(Nc2ncnc3cc4c(cc23)OCCOCCOCCO4)c1 [Icotinib]
RMAX of ACE2-RBD binding [2]: 0.2406 | ACE2-RBD binding versus inhibitor concentration (in words) [2]: concentration-dependent decrease | inhibition at 50 µM [2]: 21% | inhibition (SARS-CoV-2 M^pro [1]): -0.628%

CC(C)C(=O)OCC(=O)[C@@]12O[C@H](C3CCCCC3)O[C@@H]1C[C@H]1[C@@H]3CCC4=CC(=O)C=C[C@]4(C)[C@H]3[C@@H](O)C[C@@]12C [Ciclesonide]
inhibition (SARS-CoV-2 M^pro [1]): -0.393%

NS(=O)(=O)c1cc2c(cc1C(F)(F)F)NC(Cc1ccccc1)NS2(=O)=O (centres unmarked) [Bendroflumethiazide]
inhibition (SARS-CoV-2 M^pro [1]): 11.6%

O=C1[C@H](CC[C@H](O)c2ccc(F)cc2)[C@@H](c2ccc(O)cc2)N1c1ccc(F)cc1 [Ezetimibe]
inhibition (SARS-CoV-2 M^pro [1]): -1.34%

C[C@@H](c1nc(-c2ccc(C#N)cc2)cs1)[C@](O)(Cn1cncn1)c1cc(F)ccc1F [Isavuconazole]
inhibition (SARS-CoV-2 M^pro [1]): -0.886%

C#C[C@]1(O)CC[C@H]2[C@@H]3CCC4=CC(=O)CCC4=C3C=C[C@@]21CC [Gestrinone]
RMAX of ACE2-RBD binding [2]: 0.2366 | ACE2-RBD binding versus inhibitor concentration (in words) [2]: concentration-dependent decrease | inhibition at 50 µM [2]: 22%

Cc1cc(C#N)cc(C)c1Oc1nc(Nc2ccc(C#N)cc2)nc(N)c1Br [Etravirine]
inhibition (SARS-CoV-2 M^pro [1]): -0.895%

Cc1cc2nc3c(=O)[nH]c(=O)nc-3n(C[C@H](O)[C@H](O)[C@H](O)COP(=O)(O)OP(=O)(O)OC[C@H]3O[C@@H](n4cnc5c(N)ncnc54)[C@H](O)[C@@H]3O)c2cc1C [Flavin Adenine Dinucleotide Disodium]
IC50 (SARS-CoV-2 M^pro [3]): > 100 µM | inhibition (SARS-CoV-2 M^pro [1]): 149% | IC50 (SARS-CoV-2 M^pro [1]; normalized FRET data, technical duplicates, end-point about 4 h, read-out: IC50 against Mpro, FRET values): 42.5 µM | inhibition of the activity of Mpro in secondary screen (SARS-CoV-2 M^pro [1]; re-screen at 100 μM): completely inhibit

Cc1cc(/C=C/C#N)cc(C)c1Nc1ccnc(Nc2ccc(C#N)cc2)n1 [Rilpivirine]
inhibition (SARS-CoV-2 M^pro [1]): 5.87%

COc1ccc(-c2cc(=O)c3c(O)cc(O[C@@H]4O[C@H](CO[C@@H]5O[C@@H](C)[C@H](O)[C@@H](O)[C@H]5O)[C@@H](O)[C@H](O)[C@H]4O)cc3o2)cc1O [Diosmin]
inhibition (SARS-CoV-2 M^pro [1]): -0.378%

COc1cc2nccc(Oc3ccc(NC(=O)C4(C(=O)Nc5ccc(F)cc5)CC4)cc3)c2cc1OC [Cabozantinib Malate]
inhibition (SARS-CoV-2 M^pro [1]): 0.386%

C#C[C@]1(O)CC[C@H]2[C@@H]3CCc4cc(O)ccc4[C@H]3CC[C@@]21C [Ethynyl estradiol]
inhibition (SARS-CoV-2 M^pro [1]): -3.17%

CC1=NN(c2ccc(C)c(C)c2)C(=O)/C1=N\Nc1cccc(-c2cccc(C(=O)O)c2)c1O [Eltrombopag Olamine]
inhibition (SARS-CoV-2 M^pro [1]): 23.7%

Eptifibatide acetate
Normalized Percent FRET inhibition (SARS-CoV-2 M^pro [1]): 2.056%

C[C@H]1O[C@H](O[C@H]2[C@H](O)[C@@H](O)[C@@H](O[C@H]3[C@H](O)[C@@H](O)C(O)O[C@@H]3CO)O[C@@H]2CO)[C@H](O)[C@@H](O)[C@@H]1N[C@H]1C=C(CO)[C@@H](O)[C@H](O)[C@H]1O (some centres unmarked) [Acarbose]
inhibition (SARS-CoV-2 M^pro [1]): -3.44%

Maraviroc
Normalized Percent FRET inhibition (SARS-CoV-2 M^pro [1]): -2.69%

C[C@]12C=CC(=O)N[C@@H]1CC[C@@H]1[C@@H]2CC[C@]2(C)[C@@H](C(=O)Nc3cc(C(F)(F)F)ccc3C(F)(F)F)CC[C@@H]12 [Dutasteride]
inhibition (SARS-CoV-2 M^pro [1]): -2.38%

CO[C@@]1(NC(=O)C2SC(=C(C(N)=O)C(=O)O)S2)C(=O)N2C(C(=O)O)=C(CSc3nnnn3C)CS[C@@H]21 (some centres unmarked) [Cefotetan]
inhibition (SARS-CoV-2 M^pro [1]): 2.14%

CC1=C(C(=O)OC(C)C)C(c2cccc([N+](=O)[O-])c2)C(C(=O)OC2CN(C(c3ccccc3)c3ccccc3)C2)=C(N)N1 (centres unmarked) [Azelnidipine]
inhibition (SARS-CoV-2 M^pro [1]): 8.17%

CCC(=O)O[C@@H](O[P@](=O)(CCCCc1ccccc1)CC(=O)N1C[C@H](C2CCCCC2)C[C@H]1C(=O)[O-])C(C)C.[Na+] [Fosinopril sodium]
Normalized Percent FRET inhibition (SARS-CoV-2 M^pro [1]): 3.315%

C[C@@H]1O[C@@H](O[C@H]2C[C@@H](O)[C@]3(CO)[C@H]4[C@H](O)C[C@]5(C)[C@@H](C6=CC(=O)OC6)CC[C@]5(O)[C@@H]4CC[C@]3(O)C2)[C@H](O)[C@H](O)[C@H]1O [Ouabain octahydrate]
inhibition (SARS-CoV-2 M^pro [1]): -0.948%

Cc1c(O)cccc1C(=O)N[C@@H](CSc1ccccc1)[C@H](O)CN1C[C@H]2CCCC[C@H]2C[C@H]1C(=O)NC(C)(C)C [Nelfinavir Mesylate]
inhibition (SARS-CoV-2 M^pro [1]): 30.8%

OCCOCCN1CCN(C(c2ccccc2)c2ccc(Cl)cc2)CC1 (centres unmarked) [Hydroxyzine Pamoate]
inhibition (SARS-CoV-2 M^pro [1]): 12.9%
